Like-named read-outs stand apart in the source and are kept apart here.

Common to all, as to assay: MTT cell proliferation/cytotoxicity assay
What all share (assay type): cell-based, canine
What all share (conditions): Canis lupus familiaris, read-out: Half-Maximal Inhibitory Concentration (IC50)

The subject of one assay is CMGT071020 cells. How it is done: (§1) The cytotoxic effects of the three BZOP derivatives were studied via the 3-(4,5-Dimethyl-2-thiazolyl)-2,5-diphenyl-2H-tetrazolium bromide (MTT) assay. The REM134, CMGT071020, and MDCK cell lines were seeded at a density of 5 × 10^3 cells/well in 96-well plates and allowed to grow for 24 h. They were then treated with the three BZOP derivatives at various concentrations (0–300 µM) for 24 or 48 h, whereas cells treated with the culture medium containing 0.1% dimethyl sulfoxide (DMSO) were used as a negative control as the compounds were dissolved in DMSO. Subsequently, the cells were incubated with 10 µL of an MTT solution (Sigma, St. Louis, MO, USA) for 4 h. After the incubation with MTT solution, 100 µL of a solubilization solution was added to dissolve water-insoluble purple formazan crystals, and the plate was incubated overnight at 37 °C in 5% CO2. The absorbance of the formazan solution was measured using a Synergy H1 hybrid multi-mode microplate reader (BioTek, Winooski, VT, USA) at 570 nm. The experiment was conducted with four replicates, and the relative cell viability (%) of the treated cells was expressed as a percentage relative to the untreated control cells, which were considered to have 100% viability.

The next assay relates to MDCK cells. How it is done: as §1
Another assay has as its system REM134 cells. How it is done: as §1

On to `[O-][n+]1cccc2c1C=Cc1cccnc1O2` [OPDOb, oxepino(2,3-b:6,7-b’)dipyridine 1-oxide], for which the IC50 is greater than 300 µM in the assay with CMGT071020 cells (CMGT071020, 24 h); greater than 300 µM in the assay with CMGT071020 cells (CMGT071020, 48 h); greater than 300 µM in the assay on MDCK cells (24 h); greater than 300 µM in the assay with MDCK cells (48 h); greater than 300 µM in the assay on REM134 cells (REM134, 24 h); 172 µM with REM134 cells (REM134, 48 h).
With `[O-][n+]1cccc2c1C=Cc1ccncc1O2` [OPDOc, oxepino(3,2-b:7,6-c’)dipyridine 1-oxide], the IC50 in the assay with CMGT071020 cells (CMGT071020, 24 h) is greater than 300 µM; with CMGT071020 cells (CMGT071020, 48 h) it was greater than 300 µM; with MDCK cells (24 h) it was greater than 300 µM; with MDCK cells (48 h), greater than 300 µM; in the assay on REM134 cells (REM134, 24 h) it was greater than 300 µM; in the assay on REM134 cells (REM134, 48 h), greater than 300 µM.

For the origin of these results see article PMC10854894, “A New Benzo[6,7]oxepino[3,2-b] Pyridine Derivative Induces Apoptosis in Canine Mammary Cancer Cell Lines” (Animals : an Open Access Journal from MDPI, 2024).
